This note sets out measurements from US20250064840A1, “DRUG DELIVERY SYSTEMS BASED ON ENDOPEROXIDES USEFUL IN DIAGNOSIS AND THERAPY, AND METHODS THEREOF” (FACULDADE DE FARMÁCIA DA UNIVERSIDADE DE LISBOA, priority 2021, published 2025).

Values joined by “and” are separate entries in the source; they are usually repeats but may differ in a detail not shown here. Equal values may be shown once. Read-outs that look alike come from different tables or passages of the source.

Data set [1] has as its system Plasmodium falciparum strain 3D7. Kind of data set: Antimalarial activity, whole-cell SYBR Green I assay. Format: cell-based. The settings on record: read-out: Antimalarial activity (IC50) Mean. On the procedure:
Antimalarial activity of compounds IIa and IIb can be accessed by exposing a P. falciparum strain (see Example 5), such as strain 3D7, which is chloroquine and mefloquine sensitive, to said compounds, and by using the SYBR Green I assay as described in Machado et. al, Ann. Clin. Med. Microbio. 2016, 2, 1010. Asynchronous parasites are cultivated for 72 hours in the presence of each compound. Fluorescence intensity was measured with a multi-mode microplate reader (Triad, Dynex Technologies). Compounds IIa and IIb were active against the malaria parasite (see Example 5, Table 1). Compounds were dissolved in RPMI-1640 with L-glutamine (BiowestTM) supplemented with […] (GibcoTM), herein after referred to as RPMIc, to obtain an intermediate solution of 100 μM. Laboratory-adapted P. falciparum strain 3D7, a chloroquine and mefloquine sensitive strain, was continuously cultured as described elsewhere (Machado et. al, Ann. Clin. Med. Microbio. 2016, 2, 1010). Parasites were cultivated in 5% haematocrit, 37° C. and atmosphere with 5% of CO2. […] (GibcoTM) at 0.5% was used as a substitute of human serum in the culture medium. Staging and parasitemia were determined by light microscopy of Giemsa-stained thin blood smears. Anti-malarial activity was determined using the SYBR Green I assay (Machado et. al, Ann. Clin. Med. Microbio. 2016, 2, 1010 and Lobo et. al, […]. 2018, 17, 1). Briefly, asynchronous parasites were cultivated for 72 hours in the presence of a 1:3 serial dilution of each compound.

Data set [2] concerns MCF7 human breast adenocarcinoma. Kind of data set: Antitumoral effect, MTS metabolism assay, MCF7. The settings on record: 72 hours. Format: cell-based.
The subject of data set [3] is HCT116 human colorectal carcinoma. Kind of data set: Antitumoral effect, MTS metabolism assay, HCT116. Format: cell-based. To be noted: HCT-116, 72 hours. A general note: Tetrazolium assays rely on reduction of a dye to a coloured formazan, in cell work by metabolically active cells.
Data set [4] relates to AML12 murine immortalized hepatocyte cell line. Nature of the data set: Toxicity for non-tumoral cells, MTS assay, AML12. Format: cell-based. To be noted: for IC50: Mus musculus, non-tumorigenic cell line, 72 hours, MTS; for Selectivity (IC50Compound II/IC50 Doxorubicin): ratio to doxorubicin.
Data set [5] concerns PC3 human prostate adenocarcinoma. Kind of data set: Antitumoral effect, MTS metabolism assay, PC3. Type of data set: cell-based. The settings on record: 72 hours.
Data set [6] deals with U251 human glioblastoma. Nature of the data set: Antitumoral effect, MTS metabolism assay, U251. Type of data set: cell-based. To be noted: U-251, 72 hours.
For data set [7], the system named is HT-29 cells. To be noted: 2 mg/kg intravenous, eight injections.
The nature of data set [8]: Fluorescence quantum yields determination. Format: physicochemical. The settings on record: water with 30% DMSO; standard fluorescein in 0.1 M sodium hydroxide.
[9] abbreviates: chloroquine-sensitive 3D7 strain, asynchronous parasites, 72 hours.

As usually defined, the IC50 is the concentration at which inhibition is half-maximal. Consider `CC(C)(C)OC(=O)N1CCN(C(=O)OC2CCCC3(C2)OOC2(OO3)C3CC4CC(C3)CC2C4)CC1` (stereo not shown) [Compound IIb], for which the 50% inhibitory concentration (IC50) in data set [1] (setting [9]) was determined as 11.4 nM.

Turning to `CCN(CC)CCCC(C)Nc1ccnc2cc(Cl)ccc12` (stereo not shown) [CQ, chloroquine, reference compound], the 50% inhibitory concentration (IC50) in data set [1] (3D7, 72 h) came out at 19.4 nM.

Consider `COc1cccc2c1C(=O)c1c(O)c3c(c(O)c1C2=O)C[C@](O)(C(=O)CO)C[C@H]3O[C@@H]1CC(NC(=O)OC2CCCC3(C2)OOC2(OO3)C3CC4CC(C3)CC2C4)[C@@H](O)[C@@H](C)O1` (stereo partly shown) [IIc], for which the IC50 in data set [2] is 1650 nM; in data set [3], 5110 nM; in data set [4] it was 1830 nM; in data set [5], 1370 nM; in data set [6] it was 250 nM. The “Selectivity (IC50Compound II/IC50 Doxorubicin)” value in data set [4] is 10 and 10.64.

Regarding `COc1cccc2c1C(=O)c1c(O)c3c(c(O)c1C2=O)C[C@@](O)(C(=O)CO)C[C@@H]3O[C@H]1C[C@H](N)[C@H](O)[C@H](C)O1` [Doxorubicin, doxorubicin, reference compound], the concentration for half-maximal inhibition (IC50) in data set [2] is 170 nM; in data set [3] it was 50 nM; in data set [4], 170 nM; in data set [5] it was 120 nM; in data set [6], 11 nM. Besides, the “reduction of the tumour mass versus negative control and vehicle control” value in data set [7] is on record as “higher reduction of the tumour mass”. For the same molecule, the fluorescence quantum yield in data set [8] is given as 2.8%.

As for `COc1cccc2c1C(=O)c1c(O)c3c(c(O)c1C2=O)C[C@](O)(C(=O)CO)C[C@H]3O[C@@H]1CC(NC(=O)OCC2=CCCCC23OOC2(OO3)C3CC4CC2CC(O)(C4)C3)[C@@H](O)[C@@H](C)O1` (stereo partly shown) [Compound IIe], the IC50 in data set [2] was 8450 nM; in data set [3], 3520 nM; in data set [4], 30500 nM; in data set [5], 14300 nM; in data set [6] it was 13200 nM. Moreover, the “Selectivity (IC50Compound II/IC50 Doxorubicin)” value in data set [4] is 180 and 179.

Regarding `COc1cc(NC(C)CCCNC(=O)OC2CCCC3(C2)OOC2(OO3)C3CC4CC(C3)CC2C4)c2ncccc2c1` (stereo not shown) [Compound IIa], the IC50 in data set [1] (setting [9]) was 32.8 nM.
